Data from US20180255776A1, “HERBICIDAL COMPOSITIONS CONTAINING 4-AMINO-3-CHLORO-6-(4-CHLORO-2-FLUORO-3-METHOXYPHENYL) PYRIDINE-2-CARBOXYLIC ACID OR A DERIVATIVE THEREOF, A TRIAZOLOPYRIMIDINE SULFONAMIDE HERBICIDE OR A DERIVATIVE THEREOF, AND GLYPHOSATE OR A DERIVATIVE THEREOF” (DOW AGROSCIENCES LLC, priority 2015, published 2018).
Counter-ions that a name gives are not always drawn.

What was measured:
Test in all cases: Post-emergence field trial, visual % weed control
Format in all cases: in vivo
[1] = system: Conyza sumatrensis (Guernsey fleabane, ERISU); settings: Glyphosate DMA salt 1200 g ai/ha
Experimental: (§1) Treatments consisted of the methyl ester of 4-amino-3-chloro-6-(4-chloro-2-fluoro-3-methoxyphenyl)pyridine-2-carboxylic acid (Cmpd 1) and diclosulam in combination as GF-3220. […] Glyphosate dimethylammonium salt was applied as various commercial formulations containing 480 grams acid equivalent per liter (g ae/L).
(§2) Field trials were conducted under standard field conditions. Plot sizes varied from 3-4 meters (m) wide by 5-10 m long. Treatments were applied with small plot backpack sprayers, using pressurized carbon dioxide (CO2) as propellant. Pressure varied from 30-50 pounds per square inch (PSI), with spray tips typically of a Flat Fan type applying water diluent at 100-150 liters per hectare (L/ha). Boom sizes varied from 3-4 m in width. Weed sizes varied, but all treatments were applied as post-emergence treatments to weeds from 2 leaf to 2 tiller growth stages varying from 2-15 inches in height. No additional adjuvant was mixed with the treatments applied in the field.
(§3) The weed spectrum included, but was not limited to, Commelina benghalensis (hairy wandering Jew, COMBE), Echinochloa crus-galli (barnyardgrass, ECHCG), Euphorbia heterophylla (wild poinsettia, EPHHL), Conyza bonariensis (hairy fleabane, ERIBO), Conyza canadensis (horseweed, ERICA), Conyza sumatrensis (Guernsey fleabane, ERISU) and Ipomoea grandifolia (Corda-de-viola, IAQGR).
(§4) The values reported are percent (%) control visually rated. The predicted percent (%) weed control was determined using Colby's equation.

[2] = system: Conyza canadensis (horseweed, ERICA); settings: Glyphosate DMA salt 1200 g ai/ha
Experimental: as §1, §2, §3, §4

[3] = system: Euphorbia heterophylla (wild poinsettia, EPHHL); settings: 35DAA, Glyphosate DMA salt 960 g ai/ha
Experimental: as §1, §2, §3, §4

[4] = system: Commelina benghalensis (hairy wandering Jew, COMBE); settings: 35DAA, Glyphosate DMA salt 960 g ai/ha
Experimental: as §1, §2, §3, §4

[5] = system: Conyza bonariensis (hairy fleabane, ERIBO); settings: Glyphosate DMA salt 960 g ai/ha
Experimental: as §1, §2, §3, §4

[6] = system: Ipomoea grandifolia (Corda-de-viola, IAQGR); settings: Glyphosate DMA salt 960 g ai/ha
Experimental: as §1, §2, §3, §4

O=C(O)CNCP(=O)(O)O [Glyphosate DMA salt, Glyphosate dimethylammonium salt]
Mean % weed control ([1]; 19DAA): 19.0% | Mean % weed control ([1]; 29DAA): 17.0% | Mean % weed control ([2]; 46DAA): 25.0% | Mean % weed control ([2]; 62DAA): 20.0% | Mean % weed control [3]: 7.5% | Mean % weed control [4]: 62.0% | Mean % weed control ([5]; 9DAA): 10.0% | Mean % weed control ([5]; 14DAA): 40.0% | Mean % weed control ([5]; 35DAA): 25.0% | Mean % weed control ([5]; 67DAA): 20.0% | Mean % weed control ([6]; 14DAA): 40.0% | Mean % weed control ([6]; 28DAA): 45.0%
